The text below walks through data of patent US7094798B1, “Inhibitors of checkpoint kinases (Wee1 and Chk1)” (Pfizer Inc, priority 2002, dated 2006).

Like-named read-outs stand apart in the source and are kept apart here. A value given as a limit tells only on which side of the number the result lay.

For orientation: IC50 means the concentration that inhibits the measured activity by half.

One assay deals with T1, Chk1 enzyme (Homo sapiens, UniProt O14757).
T1 construct: purchased Onyx Pharmaceuticals
T1 sequence (O14757 1-476): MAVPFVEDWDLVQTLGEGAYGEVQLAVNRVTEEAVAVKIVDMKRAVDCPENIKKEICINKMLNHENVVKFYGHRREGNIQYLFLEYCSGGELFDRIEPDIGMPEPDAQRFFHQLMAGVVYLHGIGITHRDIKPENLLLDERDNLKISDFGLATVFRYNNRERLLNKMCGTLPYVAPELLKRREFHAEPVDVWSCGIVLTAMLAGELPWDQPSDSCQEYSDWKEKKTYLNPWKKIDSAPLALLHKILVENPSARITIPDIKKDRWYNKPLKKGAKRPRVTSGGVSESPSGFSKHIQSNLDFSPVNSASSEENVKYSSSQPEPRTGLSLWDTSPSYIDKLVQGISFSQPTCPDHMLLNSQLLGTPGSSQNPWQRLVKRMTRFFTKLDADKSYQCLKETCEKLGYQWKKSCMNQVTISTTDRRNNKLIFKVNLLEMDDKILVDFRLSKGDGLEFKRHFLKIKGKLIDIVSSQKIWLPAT
The assay is described as follows: Chk1 enzyme inhibition assay. It is filed as biochemical. The conditions noted are these: isolated Chk1 enzyme, GST-Cdc25 substrate; read-out: CHK1A IC50.

Assay [1] concerns the target T2, human Wee1 kinase aa215-647 (Homo sapiens, UniProt P30291).
T2 construct: human Wee1 kinase aa215-647; purchased Onyx Pharmaceuticals; host or cells: baculovirus protein expression system
The assay is described as follows: Wee1 inhibition filter binding assay (OY). It is filed as biochemical. The following applies: isolated Wee1 kinase, Poly Ornithine:Tyrosine (4:1) substrate; read-out: WEE1OY IC50.
Description: This assay provides a measure of inhibitory ability of the test compounds against isolated Wee1 kinase.
The Wee1 kinase assay measures enzyme mediated phosphorylation of tyrosine on a synthetic peptide substrate in the presence of compounds being tested. […] Compounds were dissolved and diluted in DMSO, 10 μl 3×EDB buffer (150 mM Tris, pH 8.0, 30 mM NaCl, 30 mM MgCl2, 3 mM DTT), 18 μl water, and 2 μl of drug dilution were added to the test wells and mixed thoroughly, 10 μl of enzyme-substrate mixture was added to the wells. […] The plates were mixed thoroughly for 5 minutes at room temperature. […] The reaction was stopped by adding 50 μl of ice cold 20% TCA with 0.1 M tetrasodium pyro-phosphate. Plates were incubated on ice or refrigerated at 4° C. for 1 hour. Liquid reaction mixture was removed on a vacuum manifold, and the precipitated phosphorylated substrate was rinsed 5 times with 200 μl ice cold 10% TCA with 0.1 M tetrasodium pyrophosphate. 25 μl liquid scintillation cocktail were added to the membrane bound substrate and the plate read in a Microbeta (Perkin-Elmer) plate reader. Activity of compounds was calculated in comparison to uninhibited control determinations in each assay.

The target in assay [2] is T3, PKC contained in a rat brain preparation.
T3 construct: Enzyme was prepared from a preparation of rat brain (Promega) 0.5 μg diluted with 1.6 ml of 10 mM Hepes buffer pH 7.5
The assay is described as follows: Protein Kinase C (PKC) assay. It is filed as biochemical. The conditions noted are these: histone H1 substrate. As for the experimental part:
The PKC assay provides a measure of inhibitory activity of the test compounds against PKC contained in a rat brain preparation.
Enzyme was prepared from a preparation of rat brain (Promega) 0.5 μg diluted with 1.6 ml of 10 mM Hepes buffer pH 7.5. Reaction buffer was comprised of 150 mM Hepes buffer, 4 mM CaCl2, 15 mM MgCl2, 3 mM EDTA, 3.75 mM EGTA at pH 7.5. Histone substrate was made by dissolving histone H1 (Sigma) in water at 1.5 mg/ml. Phosphatidylserine/diolein liposomes were made by mixing 75 μl of 10 mg/ml phosphatidylserine (Sigma) in CHCl3 with 60 μl of 2.5 mg/ml diolein in CHCl3 (Sigma) in a glass vial and evaporating the CHCl3 under N2. The film was suspended in 1 ml water and sonicated 6×15 sec with a microtip probe at room temperature.
To carry out the assay, 50 μl buffer, 20 μl histone, 20 μl liposomes, and inhibitor or solvent control were added to wells of a 96-well filter plate (Millipore) with enough water, if necessary, to make the final volume 110 μl. 20 μl of enzyme preparation solution were added and incubated for 10 minutes at room temperature. This was followed by the addition of 20 μl of ^32P ATP (75 μM ATP in water, labeled ATP at 25 μCi/ml) which was incubated for 15 minutes at room temperature. The reaction was terminated by the addition of 50 μl of 40% (w/v) trichloroacetic acid. The filters were washed by vacuum filtration with 5×125 μl of ice cold 10% (w/v) trichloroacetic acid. The filters were placed in scintillation fluor and counted to determine precipitated labeled phosphate incorporated into substrate. The percent inhibition was calculated in comparison to the uninhibited controls.

For assay [3], the system named is L1210 murine leukemia tumor cells. Nature of the assay: Cell cycle distribution of L1210 cells treated in vivo. Also on record: species or system mice. The following applies: cisplatin 6 mg/kg, compound of Example 80 20 mg/kg, 24 hours after administration.
The subject of assay [4] is HT-29 cells. The assay is described as follows: MPM-2 assay (mitotic index) in cultured HT-29 cells. It is filed as cell-based. The conditions noted are these: compound 312.5 nM. As for the experimental part:
This assay uses […] antibody to quantitate the M-phase specific histological markers in the determination of a mitotic index (fraction of cells found in mitosis).
HT-29 cells were grown in Dulbecco's Modified Eagle Medium with high glucose, supplemented with 1 mM sodium pyruvate, 2 mM L-glutamine, 16 mM HEPES, 8 mM MOPS, and 10% fetal bovine serum. They were incubated at 37° C. in an atmosphere of 5% CO2 and 100% relative humidity.
Cells were seeded in 96-well tissue culture plates at 100 μl per well at a concentration of 40,000 per ml. The cells were allowed to attach and begin growing for 24 hours. 100 μl of adriamycin (ADR) at 2 μM (final=1 μM) was added to test cells and the cells incubated for 1 hour as above. Following the incubation, the plates were washed 2 times with growth media. The media was replaced with 100 μl fresh media and incubate a further 16 hours. Serial 2-fold dilutions of potential abrogators were added to the test wells. The rows that received nocodazole (NOC) have 2 μl NOC added at 2.5 μg/ml. The plates were then incubated an additional 6 hours. Following the incubation, the plates were centrifuged for 5 minutes at 4° C. at 200 g. One hundred microliters of Carnoy's fixative, 3 parts methanol to 1 part acetic acid, was added directly to each well and left at room temperature for 15 minutes. The media/fixative mixture was removed by suction and replaced with ice cold ethanol:acetic acid in a 20:1 ratio. The plates were stored at 4° C. until stained.
The fixed cells were stained for MPM-2 using the Upstate Biotechnology MPM-2 rhodamine detection kit per manufacturer's instructions. Briefly, the cells were washed with Dulbecco's phosphate buffered saline (DPBS) with calcium and magnesium followed by incubation with blocking buffer consisting of 8% bovine serum albumen (BSA) for a minimum of 1 hour. The cells were then washed with PBS one time and treated overnight at 4° C. with primary antibody at 5 μg/ml (100 μl per well) diluted with DPBS with 1% BSA. The cells were then washed twice for 15 minutes each with DPBS and then incubated with a 1:1000 dilution of rhodamine conjugated goat antimouse IgG in DPBS with 1% BSA for 1 hour. The secondary antibody was washed off in three 30-minute washes with DPBS. The cells were then counterstained using the Molecular Probes Mycoflour kit to stain nuclei following the instructions for the kit.
The stained cells were viewed under fluorescence microscopy using fluorescence filters suitable for detecting rhodamine and DAPI stains. Images were captured using a Spot digital camera and images analyzed using ImageQuant to quantitate total nuclei and to count MPM-2 positive cells.

The subject of assay [5] is HT-29 cells. The assay is described as follows: Clonogenic assay in HT-29 cells ± Adriamycin. It is filed as cell-based. The conditions noted are these: Homo sapiens, compound 250 nM. On the procedure:
This cellular assay is a measure of the toxicity of the test compounds in the absence and presence of DNA damage induced by a conventional chemotherapeutic agent.
HT-29 cells were grown in Dulbecco's Modified Eagle Medium with high glucose, supplemented with 1 mM sodium pyruvate, 2 mM L-glutamine, 16 mM HEPES, 8 mM MOPS, and 10% fetal bovine serum. The cells were incubated at 37° C. in an atmosphere of 5% CO2 and 100% relative humidity.
Two or three T-75 tissue culture flasks were seeded at about 50% confluency in 30 ml media and incubated for approximately 24 hours. Adriamycin (ADR) (dissolved at 5 mM in distilled water (dH2O)) was added to the flasks to a final concentration of 1 uM or 500 nM. One flask received no ADR. The cells were allowed to incubate with the ADR for 1 hour. All flasks were then washed twice with 20 ml media allowed to incubate a further 16 hours in 30 ml media.
The stock agar (3.2% Seaplaque GTG Agarose (BioWhittaker Molecular Applications)) was suspended in distilled water and autoclaved for 20 minutes. The agar was melted prior to use in a microwave oven. […]
The cells were trypsinized using Trypsin-EDTA and their concentration adjusted to […] with media. […] The colonies were counted using a Hamamatsu video imaging system and ImageQuant software.

T2 sequence (P30291 215-646 limits assumed): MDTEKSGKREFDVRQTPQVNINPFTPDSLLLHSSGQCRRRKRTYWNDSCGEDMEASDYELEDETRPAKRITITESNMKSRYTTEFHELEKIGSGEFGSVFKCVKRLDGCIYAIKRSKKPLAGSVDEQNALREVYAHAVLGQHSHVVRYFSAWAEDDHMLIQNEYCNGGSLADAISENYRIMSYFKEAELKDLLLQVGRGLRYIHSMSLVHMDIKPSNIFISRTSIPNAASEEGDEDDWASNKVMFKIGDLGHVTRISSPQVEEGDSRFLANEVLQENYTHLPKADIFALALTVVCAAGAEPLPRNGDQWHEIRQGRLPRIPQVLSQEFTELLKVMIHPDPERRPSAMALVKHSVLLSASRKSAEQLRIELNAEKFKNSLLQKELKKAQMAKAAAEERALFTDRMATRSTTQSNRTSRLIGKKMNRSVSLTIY
Description for Chk1 enzyme: The assay was carried out in round bottom polypropylene 96-well plates (Costar). Compounds were tested in serial dilutions beginning with a high concentration of 50 μM followed by up to nine 3-fold dilutions. Compounds were dissolved and diluted in DMSO. 2 μl of drug were spotted on the bottom of the assay plates, then diluted with 58 μl of Chk1 buffer (20 mM Tris, pH 8.0, 50 mM NaCl, 10% Glycerol, 10 mM MgCl2, 5 mM dithiothreitol), and mixed at room temperature for 1 minute. […] Contents of the wells were mixed for 1 minute and incubated at room temperature for 10 minutes. […] The contents were mixed for 1 minute and incubated at 30° C. for 30 minutes. The reaction was stopped by adding 50 μl of 120 mM EDTA to each well, except the control wells already containing EDTA. 140 μl of the contents of the wells were transferred to the wells of Reacti-Bind Glutathione Coated White 96-Well Plates (Pierce). Contents were mixed for 1 minute and incubated at room temperature for 1 hour. All of the wells were rinsed three times each with 300 μl PBS and air dried. 200 μl MicroScint 20 (Packard) was put in the wells. Plates were sealed with an adhesive cover and counted in a Top Count Microplate Scintillation counter (Packard). Activity of compounds was calculated in comparison to uninhibited control determinations in each assay.

With `COc1ccc2[nH]c3c(c2c1)C1C(=O)NC(=O)C1C(c1ccccc1Cl)C3` (mixture of isomers) [Example 68, 4-(2-Chlorophenyl)-9-methoxy-4,5,6,10c-tetrahydropyrrolo[3,4-c]carbazole-1,3(2H,3aH)-dione], the IC50 came out at 435 nM at Chk1 enzyme, 11 nM in assay [1] and 480 nM in assay [2].

In the case of `N.N.[Cl][Pt][Cl]` [Cisplatin, reference compound], in assay [3], the “Cell cycle distribution of L1210 cells, G1” value is given as 14.0%; the “Cell cycle distribution of L1210 cells, G2M” value was 59.6%; the “Cell cycle distribution of L1210 cells, S” value stood at 26.4%.

In the case of `O=C1NC(=O)c2c1c(-c1ccccc1Cl)cc1c2c2cc(O)ccc2n1CCCO` [Example 80, 4-(2-Chlorophenyl)-9-hydroxy-6-(3-hydroxypropyl)pyrrolo[3,4-c]carbazole-1,3(2H,6H)-dione], in assay [2], the IC50 amounted to 1490 nM. Moreover, in assay [3], the “Cell cycle distribution of L1210 cells, G1” value amounted to 60.0%; the “Cell cycle distribution of L1210 cells, G2M” value came to 12.4%; the “Cell cycle distribution of L1210 cells, S” value is on record as 27.6%.

On to `O=C1NC(=O)c2c1c(-c1c(Cl)cccc1Cl)cc1c2c2cc(O)ccc2n1CCO` [Example 94, 4-(2,6-Dichlorophenyl)-9-Hydroxy-6-(2-hydroxyethyl)pyrrolo[3,4-c]carbazole-1,3(2H,6H)-dione], for which the midpoint of inhibition in assay [2], the IC50, lay at 1800 nM.

Turning to `CN(C)CCNC(=O)CCn1c2ccc(O)cc2c2c3c(c(-c4ccccc4)cc21)C(=O)NC3=O` [Example 214, N-[2-(Dimethylamino)ethyl]-3-(9-hydroxy-1,3-dioxo-4-phenyl-2,3-dihydropyrrolo[3,4-c]carbazol-6 (1H)-yl)propanamide], the half-maximal inhibitory concentration (IC50) in assay [2] amounted to 171 nM.

As for `O=C(O)CCn1c2ccc(O)cc2c2c3c(c(-c4ccccc4Cl)cc21)C(=O)NC3=O` [Example 230, 3-(4-(2-Chlorophenyl)-9-hydroxy-1,3-dioxo-2,3-dihydropyrrolo[3,4-c]carbazol-6 (1H)-yl)propanoic acid], the IC50 in assay [2] was found to be 1500 nM.

As for `CN(C)CCCOc1cc2c(cc1O)c1c3c(c(-c4ccccc4Cl)cc1n2C)C(=O)NC3=O` [Example 363, 4-(2-Chlorophenyl)-8-[3-(dimethylamino)propoxy]-9-hydroxy-6-methylpyrrolo[3,4-c]carbazole-1,3(2H,6H)-dione], the “% of cells in M phase, + Media” value in the assay on HT-29 cells [4] (6 hours) amounted to 26.4%. Besides, the “% of cells in M phase, + ADR” value with HT-29 cells [4] (after ADR 1 μM 1 hour and 16 hours) stood at 18.9%. Also, the “% of cells in M phase, + ADR + NOC” value with HT-29 cells [4] (after ADR 1 μM, with nocodazole 6 hours) was determined as 86.2%. The “% of cells in M phase, + NOC” value with HT-29 cells [4] (with nocodazole 6 hours) is given as 37.2%.

Take `Cn1c2cc(OCCCN3CCCC3)c(O)cc2c2c3c(c(-c4ccccc4Cl)cc21)C(=O)NC3=O` [Example 366, 4-(2-Chlorophenyl)-9-hydroxy-6-methyl-8-[3-(1-pyrrolidinyl)propoxy]pyrrolo[3,4-c]carbazole-1,3(2H,6H)-dione]: the activity at 0.25 µM with HT-29 cells [5] (Adriamycin pretreatment 1 hour, read-out: % of Control Colonies With DNA Damage) amounted to 2.8%; with HT-29 cells [5] (no Adriamycin, read-out: % of Control Colonies With No DNA Damage), 38%.

In assay [2], `O=C1NC(=O)c2c1c(-c1ccccc1)cc1oc3ccc(O)cc3c21` [Example 369, 9-Hydroxy-4-phenyl-1H-[1] benzofuro[3,2-e]isoindole-1,3(2H)-dione] returned an IC50 of over 4000 nM.
